{
  "source": "patent US20240100013A1",
  "about": "“SOTAGLIFLOZIN FOR IMPROVING LEFT ATRIAL FUNCTION” (CHARITÉ-UNIVERSITÄTSMEDIZIN BERLIN, priority 2021, published 2024)",
  "key": {"[1]": {"system": "LA cardiomyocytes", "assay": "Mitochondrial structure and Ca2+ uptake in LA cardiomyocytes", "type": "cell-based, rat", "settings": "HFpEF", "excerpt": "For cell membrane permeabilization and subsequent measurements of mitochondrial Ca^2+ uptake (See ‘Mitochondrial structure and Ca^2+ uptake’) wash and internal solutions were used. Wash solution contained (in mM): 100 potassium acetate, 15 KCl, 0.35 EGTA, 0.75 MgCl2, 10 HEPES; pH adjusted to 7.2 with KOH. Internal solution contained (in mM): 125 KCl, 10 NaCl, 20 HEPES, 5 pyruvate, 2 maleic acid, 2 glutamic acid, 0.5 KH2PO4, 0.5 MgCl2, 5 EGTA, 0.002 free Ca^2+(MaxChelator), 15 BDM, pH adjusted to 7.2 with KOH. For permeabilization, 0.005% saponin was added to the internal solution.\nMitochondrial structure and Ca^2+ uptake. Mitochondrial structure was visualized by local thresholding of two-dimensional images acquired with MitoTracker Red (FIGS. 5A-B, 6D) and MitoTracker Green (FIGS. 4C-F) at an LSM 800 laser scanning microscope (Zeiss, Oberkochen, Germany). The fraction of mitochondria in relation to cell surface was taken as a measure of mitochondrial density. The averaged perimeter to area ratio of mitochondrial structures per cell was calculated as an indicator of mitochondrial fission using a 2-step Otsu thresholding algorithm. See Hohendanner F, Ljubojevic S, MacQuaide N, Sacherer M, Sedej S, Biesmans L, Wakula P, Platzer D, Sokolow S, Herchuelz A et al: “Intracellular dyssynchrony of diastolic cytosolic [Ca(2)(+)] decay in ventricular cardiomyocytes in cardiac remodeling and human heart failure,” Circ Res 2013, 113(5):527-538.\nMitochondrial Ca^2+ uptake was determined as previously described in detail. See Maxwell J T, Tsai C H, Mohiuddin T A, Kwong J Q: “Analyses of Mitochondrial Calcium Influx in Isolated Mitochondria and Cultured Cells,” Journal of visualized experiments: JoVE 2018(134). LA cardiomyocytes were loaded with Rhod-2 AM and MitoTracker green, transferred to an LSM 800 laser scanning microscope and washed twice with sodium and calcium-free wash solution. The cells were then permeabilized with internal solution containing 0.005% saponin for a duration of 30-60 s and consecutively washed twice with nominal Ca^2+ free internal solution containing 5 mM EGTA. Two-dimensional images of Rhod-2 (excitation: 559 nm, emission: 575-675 nm) and MitoTracker green fluorescence (excitation: 488 nm, emission: 505-525 nm) were obtained. The perfusion was switched to internal solution containing 2 μM Ca^2+. After 1 min, a second set of Rhod-2/MitoTracker images was obtained. Following another 1-min interval, a third set of images was obtained to confirm that mitochondrial Ca^2+ uptake had indeed been completed in the second set. A binary mask of mitochondrial structures was derived from MitoTracker green images and positive pixels defined as the region-of-interest for sub-sequent determination of Rhod-2 signal intensity (F). Signal intensity during perfusion with 0 μM Ca^2+ was defined as F0 and changes of [Ca^2+] after exposure to 2 μM Ca^2+ expressed as ΔF=F−F0. The change of mitochondrial density (L.%) was quantified as a measure of mitochondrial swelling."}, "[2]": {"system": "LA cardiomyocytes", "assay": "Spontaneous SR Ca2+ release events (SCaEs) of isolated LA cardiomyocytes", "type": "cell-based, rat", "settings": "HFpEF LA cardiomyocytes after chronic treatment", "excerpt": "Cardiomyocyte isolation. LA and LV cardiomyocytes were isolated using enzymatic digestion as previously described in detail. See Bode D, Guthof T, Pieske B M, Heinzel F R, Hohendanner F: “Isolation of Atrial Cardiomyocytes from a Rat Model of Metabolic Syndrome-related Heart Failure with Preserved Ejection Fraction,” J Vis Exp 2018(137).\nSolutions and chemicals. Chemicals were obtained from Sigma-Aldrich (St. Louis, MO, USA) unless noted otherwise. The dual SGLT1/2 inhibitor sotagliflozin was provided by Lexicon Pharmaceuticals (The Woodlands, TX, USA). Fluorescent dyes Fura-2 AM, Rhod-2 AM, MitoTracker red, MitoTracker green, TMRE and H2-DCF were obtained from Thermo Fisher Scientific (Waltham, MA, USA). Tyrode solution contained (in mM): 130 NaCL, 4 KCl, 2 CaCl, 1 MgCl2, 10 Glucose, 10 HEPES; pH adjusted to 7.4 with NaOH. LA cardiomyocytes were plated on laminin-coated glass coverslips. 20 mM caffeine was added to Tyrode solution to induce sarcoplasmic reticulum (SR) Ca^2+ release and obtain a measure of SR Ca^2+ content. […]\nCa^2+ measurements and sarcomere shortening. Radiometric Ca^2+ measurements (excitation: 340 nm and 385 nm, emission: 510±10 nm; [Ca^2+] expressed as the ratio R=F340/F380) were performed either with a CytoCypher MultiCell System (CytoCypher BV, Netherlands; FIGS. 1C-F, 2D-G, 4A-F) or an Axiovert 200 microscope (Zeiss, Oberkochen, Germany) fluorescence imaging assembly (FIGS. 2A-C, 2H-J, 3A-E, 6E-I). […] Experiments were conducted at 37° C. and CaT were recorded at steady state (following electric stimulation).\nCaT and sarcomere shortening of LA and LV cardiomyocytes were recorded for 10 s at 3 Hz stimulation. See FIGS. 2D-G, 4A-F. Electric stimulation was turned off and spontaneous SR Ca^2+ release events (See Voigt N, Heijman J, Wang Q, Chiang D Y, Li N, Karck M, Wehrens X H T, Nattel S, Dobrev D: “Cellular and molecular mechanisms of atrial arrhythmogenesis in patients with paroxysmal atrial fibrillation,” Circulation 2014, 129(2):145-156) (SCaEs) immediately recorded for a duration of 10 s (FIG. 1C-F). […]"}},
  "data": [
    {"molecule": "CCOc1ccc(Cc2cc([C@@H]3O[C@H](SC)[C@@H](O)[C@H](O)[C@H]3O)ccc2Cl)cc1", "note": "[sotagliflozin, (2S,3R,4R,5S,6R)-2-(4-chloro-3-(4-ethoxybenzyl)phenyl)-6-(methylthio)tetrahydro-2H-pyran-3,4,5-triol]", "values": [
      {"measurement": "increased density of mitochondria in LA cardiomyocytes", "setting": "[1]", "result": "prevented"},
      {"measurement": "increase of mitochondrial Ca2+ uptake", "setting": "[1]; Sota vs vehicle", "result": "two-fold increase"},
      {"measurement": "mitochondrial fission", "setting": "[1]; after 1 h glucose starvation", "result": "significantly reduced"},
      {"measurement": "swelling of mitochondria", "setting": "[1]; after exposure to 2 μM Ca2+", "result": "this effect did not occur"},
      {"measurement": "mitochondrial Ca2+ uptake", "setting": "[1]; permeabilized cells, exposure from 0 μM to 2 μM Ca2+, vehicle 0.84±0.07", "result": "1.76±0.27", "unit": "AF/F0"},
      {"measurement": "amplitude of SCaEs", "setting": "[2]", "result": "significantly reduced"},
      {"measurement": "SCaE event frequency", "setting": "[2]; non-stimulated interval after 3 Hz", "result": "remained unaltered"}
    ]}
  ]
}
